Earlier results on one molecule are cited in US9850267B2, “Crystalline fosaprepitant dicyclohexylamine salt and its preparation” (Navinta, LLC, priority 2015, dated 2017).

Molecules are shown by their SMILES.

The conditions of this series: white to off-white amorphous powder.

On to `C[C@@H](O[C@H]1OCCN(Cc2nc(O)n(P(=O)(O)O)n2)[C@H]1c1ccc(F)cc1)c1cc(C(F)(F)F)cc(C(F)(F)F)c1` [Fosaprepitant dimeglumine, fosaprepitant dimeglumine], for which the solubility in water entry was “freely soluble in water”.
